Data from ChEMBL document CHEMBL5728673, “Substituted imidazopyridine compounds as inhibitors of indoleamine 2,3-dioxygenase and/or tryptophan-2,3-dioxygenase” (2021).

Key:
[1] = biological target: Indoleamine 2,3-dioxygenase 1 (Homo sapiens, UniProt P14902); test: (§1) Biochemical Coupled Assay: Recombinant human IDO or TDO was incubated in 50 mM KPO4 (pH 7.0), 0.5 mM EGTA, 0.5 mM EDTA, 0.05% Triton™ X100, 20 mM ascorbate, 10 μM methylene blue, 500 U/ml catalase, 50 μg/ml KynB (kynurenine formamidase). TDO assays were carried out in the presence of 330 μM L-tryptophan, while IDO assays had the addition of 45 μM L-tryptophan. After incubation for 17 minutes at room temperature the reactions were stopped by the addition of Erhlich's reagent and incubated at room temperature for 5 minutes before the fluorescence was read.
Chain of Indoleamine 2,3-dioxygenase 1 (P14902 whole entry): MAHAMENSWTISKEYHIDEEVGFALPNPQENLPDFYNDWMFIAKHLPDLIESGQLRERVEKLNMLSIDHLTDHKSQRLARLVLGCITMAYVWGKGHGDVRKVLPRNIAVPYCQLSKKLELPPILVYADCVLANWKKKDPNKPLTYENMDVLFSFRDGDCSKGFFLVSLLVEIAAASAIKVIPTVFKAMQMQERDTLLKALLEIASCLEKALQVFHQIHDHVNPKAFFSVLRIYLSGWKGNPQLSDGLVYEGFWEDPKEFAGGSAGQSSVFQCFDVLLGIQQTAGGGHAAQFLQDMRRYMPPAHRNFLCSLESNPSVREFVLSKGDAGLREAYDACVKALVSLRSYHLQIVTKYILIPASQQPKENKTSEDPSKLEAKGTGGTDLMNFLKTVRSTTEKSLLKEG

[2] = biological target: Tryptophan 2,3-dioxygenase (Homo sapiens, UniProt P48775); test: as §1
Chain of Tryptophan 2,3-dioxygenase (P48775 whole entry): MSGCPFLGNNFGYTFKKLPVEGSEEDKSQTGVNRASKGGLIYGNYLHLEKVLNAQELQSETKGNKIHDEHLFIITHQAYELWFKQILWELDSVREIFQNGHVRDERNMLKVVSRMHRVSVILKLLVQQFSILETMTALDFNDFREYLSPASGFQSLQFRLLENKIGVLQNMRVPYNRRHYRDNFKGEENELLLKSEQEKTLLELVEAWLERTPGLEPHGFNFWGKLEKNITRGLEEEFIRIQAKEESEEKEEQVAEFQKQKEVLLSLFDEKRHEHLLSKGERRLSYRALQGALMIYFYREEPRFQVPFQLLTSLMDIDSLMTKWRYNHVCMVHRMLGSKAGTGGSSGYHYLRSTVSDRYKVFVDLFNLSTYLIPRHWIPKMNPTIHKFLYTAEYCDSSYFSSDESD

- IC50 [1]: 148 nM
- IC50 [2]: 1590 nM
Compound: CC1(C)CN(c2cc(Cl)cc3cncn23)CCC12NC(=O)NC2=O (configuration not stated)
